# Active and inactive are the calls of the source. The calls are words filed in the database; no cut-off is given here.
# Assays:
# [1] = target: T1, 5-hydroxytryptamine receptor 4 (Homo sapiens, UniProt Q13639); assay: Displacement of [3H]GR-113808 from human 5HT4b receptor expressed in COS7 cell membrane at 1 uM by scintillation counting; assay type: cell membranes; conditions: COS-7
# [2] = target: T1, 5-hydroxytryptamine receptor 4; assay: Displacement of [3H]GR-113808 from human 5HT4b receptor expressed in COS7 cell membrane by scintillation counting
# [3] = target: T1, 5-hydroxytryptamine receptor 4; assay: Displacement of [3H]GR-113808 from human recombinant 5HT4b receptor expressed in HEK293 cells by scintillation counting; assay type: cell-based
# T1 sequence (Q13639 whole entry): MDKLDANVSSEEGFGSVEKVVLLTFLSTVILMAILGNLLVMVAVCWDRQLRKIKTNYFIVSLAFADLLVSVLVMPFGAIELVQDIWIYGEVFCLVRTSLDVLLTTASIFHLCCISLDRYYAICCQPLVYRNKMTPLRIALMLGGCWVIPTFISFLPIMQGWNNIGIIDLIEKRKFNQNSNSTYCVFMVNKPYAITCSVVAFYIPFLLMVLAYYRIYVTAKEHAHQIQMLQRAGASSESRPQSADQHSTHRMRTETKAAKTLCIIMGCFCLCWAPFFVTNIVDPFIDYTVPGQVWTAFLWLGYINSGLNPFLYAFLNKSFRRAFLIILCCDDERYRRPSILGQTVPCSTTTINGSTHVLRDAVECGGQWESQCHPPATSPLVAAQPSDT
Structure (SMILES),Activity [1],Ki [2] [µM],Ki [3] [µM]
COc1ccc2[nH]cc(CNN3CCOCC3)c2c1,Active,0.145,
COc1ccc2[nH]cc(CCN)c2c1 [5-METHOXYTRYPTAMINE],,0.0269,0.245

# Source: ChEMBL document CHEMBL1152899, “Synthesis and preliminary screening of novel indole-3-methanamines as 5-HT4 receptor ligands” (Eur J Med Chem, 2009)
